Source: patent publication US5414144A, “Propylene glycol cyclohexyl ether derivatives, method of producing same and uses thereof” (Asahi Kasei Kogyo Kabushiki Kaisha, priority 1993, dated 1995)
Where two headings read alike, the source gives them in different places.

Experiments:
[1] = format: physicochemical
Experimental: The boiling point was determined from the temperature and pressure of the vapor at the top of the distillation column.

Flash point (JIS-K2265) = format: physicochemical
[2] = for Solubility (In water) / Solubility (Water in): 20° C.; for Solubility (In water): solubility of the sample compound in water; for Solubility (In water) / solubility in water: 30 min; for Solubility (Water in): solubility of water in the sample compound; for solubility in water: Table 2
Experimental: (3) Solubility ("water in" and "in water")
10 g of a sample compound (liquid) was mixed with 10 g of water and then allowed to stand still for 30 minutes, so that the mixture was permitted to separate into a sample compound layer and an aqueous layer. Then, the water content of the sample compound layer was measured using a Karl Fischer moisture meter manufactured by Kyoto Electronics Co., Ltd., Japan, and the obtained value was taken as a solubility of water in the sample compound. The content of the sample compound in the aqueous layer was measured using GC and the obtained value was taken as a solubility of the sample compound in water.

Separability from water = format: physicochemical; settings: result in words
Experimental: (6) Separability from Water
An equivolume mixture of a sample compound and water was vigorously shaken and then allowed to stand. After a period of 5 minutes, the degree of separation of the sample compound from water was judged by the naked eye.

[3] = background, result in words; cited from earlier work
Viscosity = format: physicochemical; settings: 25° C.
Experimental: The viscosity was measured at 25° C. using a digital viscometer (Model DVL-B, manufactured by Toki Sangyo Co., Ltd., Japan).

Relative drying rate = format: physicochemical; settings: 50° C., 20 minutes; relative to Elease M-9000
Experimental: (10) Relative Drying Rate
(§1) 10 g of a sample compound and 10 g of a glycol ether-type detergent (Elease M-9000, manufactured by Asahi Kasei Kogyo K.K., Japan) were individually placed in an oven and heated at 50° C. for 20 minutes. Then, a measurement was done with respect to the decrease in the weight of the sample compound as well as the decrease in the weight of Elease M-9000. The relative drying rate was calculated according to the following formula: [formula] (11) Oil Solubility Characteristics

[4] = Oil solubility characteristics; format: physicochemical; settings: 100 g sample compound
Experimental: as §1
Each of the oils mentioned below was individually added to 100 g of a sample compound while stirring until a saturation of the sample compound with the oil was reached. The solubility (%) was expressed in terms of the percent expression of the weight of the oil dissolved in 100 g of the sample compound, with the dissolution of 100 g of the oil being taken as 100%. For example, when the amount of the oil dissolved was n g, the solubility was expressed as n %. The above-mentioned oils were: a mineral oil (Smoil PS-260, manufactured by Matsumura Sekiyu Kenkyusho, Japan), a drawing oil (Daphne Masterdraw 533WD, manufactured by Idemitsu Kosan Co., Ltd., Japan), a press oil (Uni Press DP-120, manufactured by Nippon Sekiyu Co., Ltd., Japan) and a rosin oil (sold by Kishida Kagaku Co., Ltd., Japan).

[5] = Overall comparison of properties in Table 2; settings: Table 2 comparison in words
Experimental: Properties of the product were measured and results of the measurements are shown in Table 2, together with those of Example 1 for easy comparison.

SMILES	Boiling point [1] [°C]	Flash point (Flash point (JIS-K2265)) [°C]	Solubility (In water) [2] [%]	Solubility (Water in) [2] [%]	also measured
CCCCCCOCCO [Comparative Example 1, Ethylene glycol mono-n-hexyl ether]	208	82	1.0	18.8	–
CCCCCCOCCOCCO [Comparative Example 2, Diethylene glycol mono-n-hexyl ether]	–	140	–	–	separability from water (Separability from water): good
C=C(C)C1CC=C(C)CC1 (stereo not drawn) [Comparative Example 6, Limonene]	–	45	–	–	Flash point (Flash point (JIS-K2265); result in words): low; separability from water (Separability from water): good
CCCCOCCOCCO [Comparative Example 7, Diethylene glycol monobutyl ether]	–	116	–	–	separability from water (Separability from water): poor; solubility in water [3]: disadvantageously high
CCOCCOCCOCC [Comparative Example 8, Diethylene glycol diethyl ether]	–	72	–	–	separability from water (Separability from water): poor; solubility in water [3]: extremely high solubility in water; toxicity [3]: high toxicity
CC(O)COC1CCCCC1 (stereo not drawn) [Comparative Example 9, 1-cyclohexyloxy-2-propanol]	208	88	–	–	solubility in water [2]: 1%; viscosity (Viscosity): 14 cP; Relative drying rate (Relative drying rate): 36%; Oil solubility characteristics (Drawing oil) [4]: E (Less than 2%); Oil solubility characteristics (Mineral oil) [4]: A (50% or more); Oil solubility characteristics (Press oil) [4]: A (50% or more); Oil solubility characteristics (Rosin oil) [4]: C (10% to less than 20%); dissolving power for oils [3]: poor dissolving power for oils; drying rate [3]: low drying rate; solubility in water [3]: high solubility in water; viscosity [3]: high viscosity
COCC(C)OC1CCCCC1 (stereo not drawn) [Example 1, propylene glycol methyl cyclohexyl ether]	175	73	0.3	1.4	solubility in water [2]: 0.3%; viscosity (Viscosity): 2.4 cP; Relative drying rate (Relative drying rate): 77%; Oil solubility characteristics (Drawing oil) [4]: A (50% or more); Oil solubility characteristics (Mineral oil) [4]: A (50% or more); Oil solubility characteristics (Press oil) [4]: A (50% or more); Oil solubility characteristics (Rosin oil) [4]: A (50% or more); results vs Comparative Example 9 (relative drying rate, viscosity, solubility in water, oil solubility) [5]: very superior
CCOCC(C)OC1CCCCC1 (stereo not drawn) [Example 2, propylene glycol ethyl cyclohexyl ether]	192	80	0.2	0.7	–
COCC(C)OC1CCCCC1O (stereo not drawn) [Example 3, 2-hydroxycyclohexyloxymethoxypropane]	–	–	2.7	11.7	Boiling point ([1]; Measured at 5 mm/Hg): 93 °C
CCCCOCC(C)O (stereo not drawn) [compound 3, Propylene glycol mono-n-butyl ether]	170	59	5.6	14.9	–
COCC(C)OC(C)=O (stereo not drawn) [compound 4, Propylene glycol methyl ether acetate]	146	47	3.0	19.0	–
CCCCOCC(C)OCCCC (stereo not drawn) [compound 5, Propylene glycol di-n-butyl ether]	190	69	2.0	0.6	–
COCCOCCOC [diethylene glycol dimethyl ether]	–	–	–	–	solubility in water [3]: extremely high solubility in water; toxicity [3]: high toxicity
CCCCCCOCCOCCO [diethylene glycol monohexyl ether]	–	–	–	–	viscosity [3]: disadvantageously high viscosity
